# Test results taken from patent EP0597838B1, “VACCINE COMPOSITIONS” (NORTH AMERICAN VACCINE, INC., priority 1990, dated 1991).
# Structures can show the parent of a compound that is named as a salt.
# How the values were obtained:
# [1] = system: hepatitis B surface antigen; assay: Antibody response to hepatitis B surface antigen with octadecyl amino acid immunoadjuvants, radioimmunoassay of sera; assay type: in vivo, BALB/c mice; conditions: 50 ng HBsAg i.m. day 1, boost 35 ng day 21, 100 µg octadecyl amino acid
# Method: (§1) BALB/c mice were immunized with 50 ng of hepatitis B surface antigen in the presence of adjuvant for the non-control mice and in the absence of adjuvant for the control mice. The hepatitis B surface antigen was obtained from 3T3 cells transfected with the gene for the surface antigen. 100 µg of octadecyl amino acid was complexed with the polypeptide as described in Example 2. This mixture, in a total volume of 0.1 ml, was injected on day 1 using an intramuscular route, and the mice were bled on days 7, 14, 21, 28, 35, 42 and 61. The mice were boosted with 35 ng of the polypeptide on day 21.
# (§2) The antibody concentration in the sera was determined by radioimmunoassay. The antibody concentration was estimated by comparison with a standard curve obtained using a monoclonal antibody.
# [2] = system: hepatitis B surface antigen; assay: Antibody response to hepatitis B surface antigen as a function of octadecyl tyrosine dose, radioimmunoassay of sera; assay type: in vivo, BALB/c mice; conditions: 80 ng HBsAg, boost 50 ng, pre-bleed value 11.5
# Method: as §1, §2
# The immunizations were carried out in the presence of adjuvant for the non-control mice and in the absence of adjuvant for the control mice.
# [3] = system: HIV-1 polypeptide, residues 503-535; assay: Antibody response to HIV-1 polypeptide 503-535 coupled to KLH in mice, radioimmunoassay of sera; assay type: in vivo, BALB/c mice; conditions: 100 µg polypeptide-KLH on day 1 and day 21
# Method: 1) HIV Peptide Sequence The peptide sequence of the HIV was as follows. Product: BC-101 503- H-[…] 535 M.W. 3585.14 (Back-bone) 2) Experiments in mice BALB/c mice were immunized with 100 µg of chemically synthesized polypeptide, corresponding to the amino acid sequence of residues 503-535 of HIV-1, coupled to Keyhole Limpet Hemocyanin (KLH). Octadecyl tyrosine hydro-chloride, 10 µg-100 µg, was complexed with the polypeptide as described in Example 2. This mixture, in a total volume of 0.1 ml, was injected on day 1, and again on day 21. The mice were bled on days 7, 14, 21, 28 and 35. The antibody concentration in the sera was determined by radioimmunoassay. The antibody concentration was estimated by comparison with a standard curve obtained using a polyclonal antibody.
# [4] = C.L. Penney et al, Vaccine 4, 1986; cited from earlier work
# [5] = system: hepatitis B surface antigen; assay: Isotype of the anti-hepatitis B surface antigen antibody response, radioimmunoassay with tritium labelled anti-mouse isotype antibody; assay type: in vivo, mice; conditions: for IgE, radioactivity of bound isotype antibody / IgG1, radioactivity of bound isotype antibody / IgG2a, radioactivity of bound isotype antibody / IgG2b, radioactivity of bound isotype antibody / IgG3, radioactivity of bound isotype antibody / IgM, radioactivity of bound isotype antibody: immunization on day 1 and 21, 50 µg of octadecyl tyrosine
# Method: The protocol was as described in Example 5, Section 2 (mice) except that 50 µg of octadecyl tyrosine was used for both the primary and secondary (day 21) immunizations. The isotype of the antibody response was determined by radioimmunoassay. Use was made of tritium labelled anti-mouse isotype antibody. Titration was undertaken by incubation of samples on plates coated with immunoaffinity purified hepatitis B surface antigen.
# [6] = system: hepatitis B surface antigen; assay: Antibody response to hepatitis B surface antigen as a function of octadecyl tyrosine dose, radioimmunoassay of sera; assay type: in vivo, BALB/c mice; conditions: day 21, 80 ng HBsAg, boost 50 ng, pre-bleed value 11.5
compound,measurement,setting,value
"CCCCCCCCCCCCCCCCCCOC(=O)C(N)Cc1ccc(O)cc1 (centres unmarked) [Octadecyl Tyrosine, octadecyl tyrosine hydrochloride]",Anti-HBsAg antibody concentration,[1]; day 7,68 ng/mL
same,Anti-HBsAg antibody concentration,[1]; day 14,91 ng/mL
same,Anti-HBsAg antibody concentration,[1]; day 21,58 ng/mL
same,Anti-HBsAg antibody concentration,[1]; day 28,355 ng/mL
same,Anti-HBsAg antibody concentration,[1]; day 35,833 ng/mL
same,Anti-HBsAg antibody concentration,[1]; day 61,752 ng/mL
same,Antibody response to hepatitis B surface antigen,"[2]; 10 µg adjuvant, day 7",611 CPM
same,Antibody response to hepatitis B surface antigen,"[2]; 10 µg adjuvant, day 14",2314 CPM
same,Antibody response to hepatitis B surface antigen,"[2]; 10 µg adjuvant, day 28",8403 CPM
same,Antibody response to hepatitis B surface antigen,"[2]; 10 µg adjuvant, day 35",10005 CPM
same,Antibody response to hepatitis B surface antigen,"[2]; 50 µg adjuvant, day 7",2064 CPM
same,Antibody response to hepatitis B surface antigen,"[2]; 50 µg adjuvant, day 14",846 CPM
same,Antibody response to hepatitis B surface antigen,"[2]; 50 µg adjuvant, day 28",18804 CPM
same,Antibody response to hepatitis B surface antigen,"[2]; 50 µg adjuvant, day 35",20616 CPM
same,Antibody response to hepatitis B surface antigen,"[2]; 100 µg adjuvant, day 7",1107 CPM
same,Antibody response to hepatitis B surface antigen,"[2]; 100 µg adjuvant, day 14",537 CPM
same,Antibody response to hepatitis B surface antigen,"[2]; 100 µg adjuvant, day 28",19679 CPM
same,Antibody response to hepatitis B surface antigen,"[2]; 100 µg adjuvant, day 35",13427 CPM
same,Anti-peptide antibody concentration,"[3]; 10 µg adjuvant, day 7",1.61 µg/mL
same,Anti-peptide antibody concentration,"[3]; 10 µg adjuvant, day 14",3.15 µg/mL
same,Anti-peptide antibody concentration,"[3]; 10 µg adjuvant, day 21",1.49 µg/mL
same,Anti-peptide antibody concentration,"[3]; 10 µg adjuvant, day 28",85.9 µg/mL
same,Anti-peptide antibody concentration,"[3]; 10 µg adjuvant, day 35",131.9 µg/mL
same,Anti-peptide antibody concentration,"[3]; 50 µg adjuvant, day 7",1.18 µg/mL
same,Anti-peptide antibody concentration,"[3]; 50 µg adjuvant, day 14",0.75 µg/mL
same,Anti-peptide antibody concentration,"[3]; 50 µg adjuvant, day 21",2.99 µg/mL
same,Anti-peptide antibody concentration,"[3]; 50 µg adjuvant, day 28",54.2 µg/mL
same,Anti-peptide antibody concentration,"[3]; 50 µg adjuvant, day 35",86.2 µg/mL
same,Anti-peptide antibody concentration,"[3]; 100 µg adjuvant, day 7",0.87 µg/mL
same,Anti-peptide antibody concentration,"[3]; 100 µg adjuvant, day 14",1.65 µg/mL
same,Anti-peptide antibody concentration,"[3]; 100 µg adjuvant, day 21",2.04 µg/mL
same,Anti-peptide antibody concentration,"[3]; 100 µg adjuvant, day 28",155.3 µg/mL
same,Anti-peptide antibody concentration,"[3]; 100 µg adjuvant, day 35",138.0 µg/mL
same,toxicity in animals,[4],non-toxic
same,"IgE, radioactivity of bound isotype antibody",[5]; day of bleed 14,33±10 cpm
same,"IgG1, radioactivity of bound isotype antibody",[5]; day of bleed 14,568±32 cpm
same,"IgG2a, radioactivity of bound isotype antibody",[5]; day of bleed 14,483±44 cpm
same,"IgG2b, radioactivity of bound isotype antibody",[5]; day of bleed 14,290±31 cpm
same,"IgG3, radioactivity of bound isotype antibody",[5]; day of bleed 14,144±19 cpm
same,"IgM, radioactivity of bound isotype antibody",[5]; day of bleed 14,347±37 cpm
same,"IgE, radioactivity of bound isotype antibody",[5]; day of bleed 35,55±33 cpm
same,"IgG1, radioactivity of bound isotype antibody",[5]; day of bleed 35,8030±155 cpm
same,"IgG2a, radioactivity of bound isotype antibody",[5]; day of bleed 35,12331±336 cpm
same,"IgG2b, radioactivity of bound isotype antibody",[5]; day of bleed 35,4710±115 cpm
same,"IgG3, radioactivity of bound isotype antibody",[5]; day of bleed 35,333±17 cpm
same,"IgM, radioactivity of bound isotype antibody",[5]; day of bleed 35,826±8 cpm
same,"IgE, radioactivity of bound isotype antibody",[5]; day of bleed 42,29±12 cpm
same,"IgG1, radioactivity of bound isotype antibody",[5]; day of bleed 42,6176±496 cpm
same,"IgG2a, radioactivity of bound isotype antibody",[5]; day of bleed 42,2271±215 cpm
same,"IgG2b, radioactivity of bound isotype antibody",[5]; day of bleed 42,1109±77 cpm
same,"IgG3, radioactivity of bound isotype antibody",[5]; day of bleed 42,165±24 cpm
same,"IgM, radioactivity of bound isotype antibody",[5]; day of bleed 42,545±87 cpm
same,levels of IgE antibodies,"[5]; in words, compared to the control without adjuvant",no significant increase
same,Antibody response to hepatitis B surface antigen,[6]; 10 µg adjuvant,342 CPM
same,Antibody response to hepatitis B surface antigen,[6]; 50 µg adjuvant,4000 CPM
same,Antibody response to hepatitis B surface antigen,[6]; 100 µg adjuvant,1279 CPM
